Test results published in the supplement of paper PMC10307832.

How the values were obtained:
Assay in all cases: relative viability (nuclei count vs DMSO), 5 days (fraction); higher = more cells survive
Ibrutinib + Linsitinib = compound: C=CC(=O)N1CCC[C@@H](n2nc(-c3ccc(Oc4ccccc4)cc3)c3c(N)ncnc32)C1 [Ibrutinib] + C[C@]1(O)C[C@@H](c2nc(-c3ccc4ccc(-c5ccccc5)nc4c3)c3c(N)nccn32)C1 [Linsitinib] (partner 1 µM)
Summary of the method: (§1)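 Lung cancer cell lines in 1536-well plates were dosed by pin tool the day after seeding, either with one drug alone or with a fixed anchor-drug dose plus five library-drug doses (not always all listed) in √10 steps. After 5 days, cells were fixed and their nuclei stained in one step (final 0.05% Triton X-100, 1% formaldehyde, 1 ug/ml Hoechst), then counted on 4× images. Relative viability is the nuclei count in treated wells divided by that in vehicle wells. Values are medians of duplicate plates.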

Ibrutinib + Vorinostat = compound: C=CC(=O)N1CCC[C@@H](n2nc(-c3ccc(Oc4ccccc4)cc3)c3c(N)ncnc32)C1 [Ibrutinib] + O=C(CCCCCCC(=O)Nc1ccccc1)NO [Vorinostat] (partner 1 µM)
Summary of the method: as §1

PAC-1 + Lapatinib = compound: C=CCc1cccc(/C=N/NC(=O)CN2CCN(Cc3ccccc3)CC2)c1O [PAC-1] + CS(=O)(=O)CCNCc1ccc(-c2ccc3ncnc(Nc4ccc(OCc5cccc(F)c5)c(Cl)c4)c3c2)o1 [Lapatinib] (partner 2 µM)
Summary of the method: as §1

Ibrutinib + Trametinib = compound: C=CC(=O)N1CCC[C@@H](n2nc(-c3ccc(Oc4ccccc4)cc3)c3c(N)ncnc32)C1 [Ibrutinib] + CC(=O)Nc1cccc(-n2c(=O)n(C3CC3)c(=O)c3c(Nc4ccc(I)cc4F)n(C)c(=O)c(C)c32)c1 [Trametinib] (partner 0.02 µM)
Summary of the method: as §1

SK-MES-1
relative viability (Ibrutinib + Linsitinib; first compound 0.005 µM): 1.06 | relative viability (Ibrutinib + Linsitinib; first compound 0.01581 µM): 0.937 | relative viability (Ibrutinib + Linsitinib; first compound 0.05 µM): 1.11 | relative viability (Ibrutinib + Linsitinib; first compound 0.1581 µM): 1.06 | relative viability (Ibrutinib + Linsitinib; first compound 0.5 µM): 0.447 | relative viability (Ibrutinib + Vorinostat; first compound 0.005 µM): 1.16 | relative viability (Ibrutinib + Vorinostat; first compound 0.01581 µM): 1.05 | relative viability (Ibrutinib + Vorinostat; first compound 0.05 µM): 1.07 | relative viability (Ibrutinib + Vorinostat; first compound 0.1581 µM): 1.26 | relative viability (Ibrutinib + Vorinostat; first compound 0.5 µM): 0.747 | relative viability (PAC-1 + Lapatinib; first compound 0.02 µM): 0.455 | relative viability (PAC-1 + Lapatinib; first compound 0.06325 µM): 0.457 | relative viability (PAC-1 + Lapatinib; first compound 0.2 µM): 0.443 | relative viability (PAC-1 + Lapatinib; first compound 2 µM): 0.445 | relative viability (Ibrutinib + Trametinib; first compound 0.005 µM): 0.591 | relative viability (Ibrutinib + Trametinib; first compound 0.01581 µM): 0.467 | relative viability (Ibrutinib + Trametinib; first compound 0.05 µM): 0.36 | relative viability (Ibrutinib + Trametinib; first compound 0.1581 µM): 0.611 | relative viability (Ibrutinib + Trametinib; first compound 0.5 µM): 0.297
